{"source": "PubChem BioAssay (NCI)", "assay_in_all_cases": "NCI-60 cell line screen, 48 h", "key": {"786-0 renal": {"tested_on": "786-0 renal"}, "A498 renal": {"tested_on": "A498 renal"}, "A549 NSCLC": {"tested_on": "A549 NSCLC"}, "ACHN renal": {"tested_on": "ACHN renal"}, "BT-549 breast": {"tested_on": "BT-549 breast"}, "CAKI-1 renal": {"tested_on": "CAKI-1 renal"}, "CCRF-CEM leukemia": {"tested_on": "CCRF-CEM leukemia"}, "DU-145 prostate": {"tested_on": "DU-145 prostate"}, "EKVX NSCLC": {"tested_on": "EKVX NSCLC"}, "HCC-2998 colon": {"tested_on": "HCC-2998 colon"}, "HCT-116 colon": {"tested_on": "HCT-116 colon"}, "HCT-15 colon": {"tested_on": "HCT-15 colon"}, "HOP-62 NSCLC": {"tested_on": "HOP-62 NSCLC"}, "HS 578T breast": {"tested_on": "HS 578T breast"}, "HT29 colon": {"tested_on": "HT29 colon"}, "IGROV1 ovarian": {"tested_on": "IGROV1 ovarian"}, "K-562 leukemia": {"tested_on": "K-562 leukemia"}, "KM12 colon": {"tested_on": "KM12 colon"}, "LOX IMVI melanoma": {"tested_on": "LOX IMVI melanoma"}, "M14 melanoma": {"tested_on": "M14 melanoma"}, "MCF7 breast": {"tested_on": "MCF7 breast"}, "MDA-MB-231 breast": {"tested_on": "MDA-MB-231 breast"}, "MDA-MB-435": {"tested_on": "MDA-MB-435"}, "MDA-N": {"tested_on": "MDA-N"}, "MOLT-4 leukemia": {"tested_on": "MOLT-4 leukemia"}, "NCI-H226 lung": {"tested_on": "NCI-H226 lung"}, "NCI-H23 lung": {"tested_on": "NCI-H23 lung"}, "NCI-H460 lung": {"tested_on": "NCI-H460 lung"}, "NCI-H522 lung": {"tested_on": "NCI-H522 lung"}, "NCI/ADR-RES ovarian": {"tested_on": "NCI/ADR-RES ovarian"}, "OVCAR-3 ovarian": {"tested_on": "OVCAR-3 ovarian"}, "OVCAR-5 ovarian": {"tested_on": "OVCAR-5 ovarian"}, "OVCAR-8 ovarian": {"tested_on": "OVCAR-8 ovarian"}, "PC-3 prostate": {"tested_on": "PC-3 prostate"}, "RPMI-8226 leukemia": {"tested_on": "RPMI-8226 leukemia"}, "RXF 393 renal": {"tested_on": "RXF 393 renal"}, "SF-268 CNS": {"tested_on": "SF-268 CNS"}, "SF-295 CNS": {"tested_on": "SF-295 CNS"}, "SF-539 CNS": {"tested_on": "SF-539 CNS"}, "SK-MEL-2 melanoma": {"tested_on": "SK-MEL-2 melanoma"}, "SK-MEL-28 melanoma": {"tested_on": "SK-MEL-28 melanoma"}, "SK-MEL-5 melanoma": {"tested_on": "SK-MEL-5 melanoma"}, "SK-OV-3 ovarian": {"tested_on": "SK-OV-3 ovarian"}, "SN12C renal": {"tested_on": "SN12C renal"}, "SNB-19 CNS": {"tested_on": "SNB-19 CNS"}, "SNB-75 CNS": {"tested_on": "SNB-75 CNS"}, "SR leukemia": {"tested_on": "SR leukemia"}, "SW-620 colon": {"tested_on": "SW-620 colon"}, "T-47D breast": {"tested_on": "T-47D breast"}, "TK-10 renal": {"tested_on": "TK-10 renal"}, "U251 CNS": {"tested_on": "U251 CNS"}, "UACC-257 melanoma": {"tested_on": "UACC-257 melanoma"}, "UACC-62 melanoma": {"tested_on": "UACC-62 melanoma"}, "UO-31 renal": {"tested_on": "UO-31 renal"}}, "note": "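Test compounds were applied to cells in 96-well plates for 48 hours at 5 doses. Definition used: TGI = concentration required for complete inhibition of growth.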", "data": [{"smiles": "C#Cc1nc(N)c2ncn(C3OC(COS(N)(=O)=O)C(O)C3O)c2n1", "note": "(centres undefined)", "values": [{"measurement": "TGI", "setting": "786-0 renal", "result": 797, "unit": "nM"}, {"measurement": "TGI", "setting": "A498 renal", "result": "< 30.2", "unit": "nM"}, {"measurement": "TGI", "setting": "A549 NSCLC", "result": 1560, "unit": "nM"}, {"measurement": "TGI", "setting": "ACHN renal", "result": 74.3, "unit": "nM"}, {"measurement": "TGI", "setting": "BT-549 breast", "result": 349, "unit": "nM"}, {"measurement": "TGI", "setting": "CAKI-1 renal", "result": 225, "unit": "nM"}, {"measurement": "TGI", "setting": "CCRF-CEM leukemia", "result": "< 25.8", "unit": "nM"}, {"measurement": "TGI", "setting": "DU-145 prostate", "result": 99.7, "unit": "nM"}, {"measurement": "TGI", "setting": "EKVX NSCLC", "result": 1290, "unit": "nM"}, {"measurement": "TGI", "setting": "HCC-2998 colon", "result": 191, "unit": "nM"}, {"measurement": "TGI", "setting": "HCT-116 colon", "result": 288, "unit": "nM"}, {"measurement": "TGI", "setting": "HCT-15 colon", "result": 429, "unit": "nM"}, {"measurement": "TGI", "setting": "HOP-62 NSCLC", "result": 1970, "unit": "nM"}, {"measurement": "TGI", "setting": "HS 578T breast", "result": 736, "unit": "nM"}, {"measurement": "TGI", "setting": "HT29 colon", "result": 481, "unit": "nM"}, {"measurement": "TGI", "setting": "IGROV1 ovarian", "result": 114, "unit": "nM"}, {"measurement": "TGI", "setting": "K-562 leukemia", "result": "> 100000", "unit": "nM"}, {"measurement": "TGI", "setting": "KM12 colon", "result": 352, "unit": "nM"}, {"measurement": "TGI", "setting": "LOX IMVI melanoma", "result": "< 32.5", "unit": "nM"}, {"measurement": "TGI", "setting": "M14 melanoma", "result": 457, "unit": "nM"}, {"measurement": "TGI", "setting": "MCF7 breast", "result": "> 100000", "unit": "nM"}, {"measurement": "TGI", "setting": "MDA-MB-231 breast", "result": "< 47.6", "unit": "nM"}, {"measurement": "TGI", "setting": "MDA-MB-435", "result": 71.7, "unit": "nM"}, {"measurement": "TGI", "setting": "MDA-N", "result": "< 29.9", "unit": "nM"}, {"measurement": "TGI", "setting": "MOLT-4 leukemia", "result": "< 25.8", "unit": "nM"}, {"measurement": "TGI", "setting": "NCI-H226 lung", "result": 49.1, "unit": "nM"}, {"measurement": "TGI", "setting": "NCI-H23 lung", "result": 136, "unit": "nM"}, {"measurement": "TGI", "setting": "NCI-H460 lung", "result": 634, "unit": "nM"}, {"measurement": "TGI", "setting": "NCI-H522 lung", "result": "< 10", "unit": "nM"}, {"measurement": "TGI", "setting": "NCI/ADR-RES ovarian", "result": "< 29.1", "unit": "nM"}, {"measurement": "TGI", "setting": "OVCAR-3 ovarian", "result": 90.1, "unit": "nM"}, {"measurement": "TGI", "setting": "OVCAR-5 ovarian", "result": 122, "unit": "nM"}, {"measurement": "TGI", "setting": "OVCAR-8 ovarian", "result": 194, "unit": "nM"}, {"measurement": "TGI", "setting": "PC-3 prostate", "result": 213, "unit": "nM"}, {"measurement": "TGI", "setting": "RPMI-8226 leukemia", "result": 110, "unit": "nM"}, {"measurement": "TGI", "setting": "RXF 393 renal", "result": 86.6, "unit": "nM"}, {"measurement": "TGI", "setting": "SF-268 CNS", "result": 688, "unit": "nM"}, {"measurement": "TGI", "setting": "SF-295 CNS", "result": 3170, "unit": "nM"}, {"measurement": "TGI", "setting": "SF-539 CNS", "result": 198, "unit": "nM"}, {"measurement": "TGI", "setting": "SK-MEL-2 melanoma", "result": 19.6, "unit": "nM"}, {"measurement": "TGI", "setting": "SK-MEL-28 melanoma", "result": 298, "unit": "nM"}, {"measurement": "TGI", "setting": "SK-MEL-5 melanoma", "result": 344, "unit": "nM"}, {"measurement": "TGI", "setting": "SK-OV-3 ovarian", "result": "< 10", "unit": "nM"}, {"measurement": "TGI", "setting": "SN12C renal", "result": 256, "unit": "nM"}, {"measurement": "TGI", "setting": "SNB-19 CNS", "result": 266, "unit": "nM"}, {"measurement": "TGI", "setting": "SNB-75 CNS", "result": 349, "unit": "nM"}, {"measurement": "TGI", "setting": "SR leukemia", "result": "< 17.2", "unit": "nM"}, {"measurement": "TGI", "setting": "SW-620 colon", "result": 665, "unit": "nM"}, {"measurement": "TGI", "setting": "T-47D breast", "result": "< 10", "unit": "nM"}, {"measurement": "TGI", "setting": "TK-10 renal", "result": 327, "unit": "nM"}, {"measurement": "TGI", "setting": "U251 CNS", "result": 449, "unit": "nM"}, {"measurement": "TGI", "setting": "UACC-257 melanoma", "result": 339, "unit": "nM"}, {"measurement": "TGI", "setting": "UACC-62 melanoma", "result": 369, "unit": "nM"}, {"measurement": "TGI", "setting": "UO-31 renal", "result": 150, "unit": "nM"}]}]}
